# In BindingDB's records for doi:10.1080/14756360310001650200 (Universit&Eacute, 2004):
# Target: T1, Chymase (Homo sapiens, UniProt P23946)
# T1 sequence (P23946 whole entry): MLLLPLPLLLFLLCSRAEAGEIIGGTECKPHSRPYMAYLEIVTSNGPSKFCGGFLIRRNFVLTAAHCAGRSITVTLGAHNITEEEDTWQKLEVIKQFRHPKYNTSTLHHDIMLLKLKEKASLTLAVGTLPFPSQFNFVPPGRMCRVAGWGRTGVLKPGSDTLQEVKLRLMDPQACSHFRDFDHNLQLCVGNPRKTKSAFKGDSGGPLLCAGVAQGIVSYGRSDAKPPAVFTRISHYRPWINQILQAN
# Assay: Enzyme Inhibition Assay
# Source text: Enzyme inhibitory activity using recombinant human chymase.
row,Structure (SMILES),IC50 [µM]
1,"Cc1ccc(S(=O)(=O)n2c(O)c3n(c2=O)-c2ccccc2C3)cc1C [Tetrahydroisoquinoline hydantoin derivative, 3b]",206
2,"Cc1ccc(S(=O)(=O)n2c(O)c3n(c2=O)Cc2ccccc2C3)cc1C [Tetrahydroisoquinoline hydantoin derivative, 5b]",42.8
3,"O=c1n2c(c(O)n1S(=O)(=O)c1ccc3ccccc3c1)Cc1ccccc1C2 [Tetrahydroisoquinoline hydantoin derivative, 5d]",17.5

# More lines, in order of falling IC50, values ahead:
row,IC50 [µM],Structure (SMILES)
1,374,"O=c1n2c(c(O)n1S(=O)(=O)c1ccc(Cl)c(Cl)c1)Cc1ccccc1-2 [Tetrahydroisoquinoline hydantoin derivative, 3c]"
2,172,"Cc1ccc(S(=O)(=O)n2c(O)c3n(c2=O)-c2ccccc2C3)cc1 [Tetrahydroisoquinoline hydantoin derivative, 3a]"
3,86.8,"O=c1n2c(c(O)n1S(=O)(=O)c1ccc3ccccc3c1)Cc1ccccc1-2 [Tetrahydroisoquinoline hydantoin derivative, 3d]"
4,49,"Cc1ccc(S(=O)(=O)N2C(=O)[C@@H]3Cc4ccccc4CN3C2=O)cc1 [Tetrahydroisoquinoline hydantoin derivative, 5a]"
